The values that follow come from US10899738B2 (THE REGENTS OF THE UNIVERSITY OF MICHIGAN, priority 2016, dated 2021).

Molecules are shown by their SMILES.

Sequence of menin protein (O00255 whole entry): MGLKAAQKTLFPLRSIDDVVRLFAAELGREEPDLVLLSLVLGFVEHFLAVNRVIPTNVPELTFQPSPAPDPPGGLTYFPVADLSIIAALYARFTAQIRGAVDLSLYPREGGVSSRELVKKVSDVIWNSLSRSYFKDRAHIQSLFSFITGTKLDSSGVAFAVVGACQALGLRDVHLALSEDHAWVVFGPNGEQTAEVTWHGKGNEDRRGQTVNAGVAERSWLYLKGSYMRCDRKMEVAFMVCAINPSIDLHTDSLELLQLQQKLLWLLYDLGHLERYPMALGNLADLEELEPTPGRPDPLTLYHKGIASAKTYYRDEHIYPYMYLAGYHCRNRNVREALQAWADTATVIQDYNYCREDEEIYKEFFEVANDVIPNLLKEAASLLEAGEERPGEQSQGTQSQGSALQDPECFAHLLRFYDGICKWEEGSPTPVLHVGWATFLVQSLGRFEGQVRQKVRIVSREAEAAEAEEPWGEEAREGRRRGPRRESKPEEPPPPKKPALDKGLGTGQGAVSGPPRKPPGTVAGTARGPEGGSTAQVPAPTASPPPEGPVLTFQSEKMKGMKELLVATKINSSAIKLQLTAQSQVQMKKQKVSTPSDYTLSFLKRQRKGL

For this test, the target named is menin protein (Homo sapiens (Human), UniProt O00255). The experiment in a line: biochemical. It counts as binding. Particulars: FP competitive binding; menin protein 4 nM, FAM-MM2 probe 2 nM; read-out: Menin Binding Affinity IC50. The method, then:
A fluorescence polarization (FP) competitive binding assay was used to determine the binding affinities of representative menin inhibitors. A FAM labeled fluorescent probe was designed and synthesized based on a MLL1 peptide (FAM-MM2). Equilibrium dissociation constant (Kd) value of FAM-MM2 to menin protein was determined from protein saturation experiments by monitoring the total fluorescence polarization of mixtures composed with the fluorescent probe at a fixed concentration and the protein with increasing concentrations up to full saturation. Serial dilutions of the protein were mixed with FAM-MM2 to a final volume of 200 μl in the assay buffer (PBS with 0.02% Bovine γ-Globulin and 4% DMSO. 0.01% Triton X-100 was added right before assays). Final FAM-MM2 concentration was 2 nM. Plates were incubated at room temperature for 30 minutes with gentle shaking to assure equilibrium.
The IC50, see Table 3, and Ki values of representative Compounds of the Disclosure were determined in a competitive binding experiment. Mixtures of 5 μl of the tested compounds in DMSO and 195 μl of preincubated protein/probe complex solution in the assay buffer were added into assay plates which were incubated at room temperature for 30 minutes with gentle shaking. Final concentration of the menin protein was 4 nM, and final probe concentration is 2 nM. […] FP values were measured as described above. IC50 values were determined by nonlinear regression fitting of the competition curves.
On to `O=C(CN1CCC(C2(C3CCCC3)NCCc3ccccc32)CC1)N1Cc2ccccc2C1` (stereo not drawn) [compound 82, 2-(4-(1-cyclopentyl-1,2,3,4-tetrahydroisoquinolin-1-yl)piperidin-1-yl)-1-(isoindolin-2-yl)ethan-1-one], for which the IC50 turned out to be 6.2 µM.

For `c1ccc2c(c1)CCNC2(C1CCCC1)C1CCNCC1` (stereo not drawn) [compound 72, 1-cyclopentyl-1-(piperidin-4-yl)-1,2,3,4-tetrahydroisoquinoline], the IC50 was determined as 610 µM.

On to `N#Cc1ccc(NCCCN2CCC(C3(C4CCCC4)NCCc4ccccc43)CC2)cn1` (stereo not drawn) [compound 59, 5-((3-(4-(1-cyclopentyl-1,2,3,4-tetrahydroisoquinolin-1-yl)piperidin-1-yl)propyl)amino)picolinonitrile], for which the IC50 was found to be 2.3 µM.

On to `N#Cc1ccc(OCCCN2CCC(C(C#N)(CC(=O)N3CCCC3)c3ccccc3)CC2)cc1` (stereo not drawn) [compound 306, 4-(3-(4-(1-cyano-3-oxo-1-phenyl-3-(pyrrolidin-1-yl)propyl)piperidin-1-yl)propoxy)benzonitrile], for which the IC50 turned out to be 40 µM.

Consider `CC(C)C(=O)N1CCCCC1C1(C2CCN(CCCOc3ccc(C#N)cc3)CC2)CN(C)Cc2ccccc21` (stereo not drawn) [compound 300, 4-(3-(4-(4-(1-isobutyrylpiperidin-2-yl)-2-methyl-1,2,3,4-tetrahydroisoquinolin-4-yl)piperidin-1-yl)propoxy)benzonitrile], for which the IC50 is 56.5 µM.

For `CCC(CC)C1(C2CCN(CCCOc3ccc(C#N)cc3)CC2)NCCc2ccccc21` (stereo not drawn) [compound 249, 4-(3-(4-(1-(pentan-3-yl)-1,2,3,4-tetrahydroisoquinolin-1-yl)piperidin-1-yl)propoxy)benzonitrile], the IC50 was found to be 1.9 µM.

Consider `CS(=O)(=O)C[C@@H]1CCC[C@H]1C(C#N)(c1ccccc1)C1CCN(CC2CN(c3ccc(S(=O)(=O)c4ccncc4)cc3)C2)CC1` (mixture of isomers) [compound 256, rac-2-((1R,2R)-2-((methylsulfonyl)methyl)cyclopentyl)-2-phenyl-2-(1-((1-(4-(pyridin-4-ylsulfonyl)phenyl)azetidin-3-yl)methyl)piperidin-4-yl)acetonitrile], for which the IC50 stood at 3.3 µM.

For `CN1CCc2ccccc2C1(C1CCCC1)C1CN(CCCCCOc2ccc(C#N)cc2)C1` (stereo not drawn) [compound 63, 4-((5-(3-(1-cyclopentyl-2-methyl-1,2,3,4-tetrahydroisoquinolin-1-yl)azetidin-1-yl)pentyl)oxy)benzonitrile], the IC50 came to 6 µM.

For `N#CC(c1ccccc1)(C1CCN(CC2CN(c3ccc(S(=O)(=O)c4ccncc4)cc3)C2)CC1)[C@H]1CCC[C@@H]1CCO` (mixture of isomers) [compound 342, rac-2-((1S,2R)-2-(2-hydroxyethyl)cyclopentyl)-2-phenyl-2-(1-((1-(4-(pyridin-4-ylsulfonyl)phenyl)azetidin-3-yl)methyl)piperidin-4-yl)acetonitrile], the IC50 was 0.897 µM.

As to `CO[C@@H]1CCC[C@H]1C1(C2CCN(CCCOc3ccc(C(=O)O)cc3)CC2)CNCc2ccccc21` (mixture of isomers) [compound 327, rac-4-(3-(4-(4-((1S,2R)-2-methoxycyclopentyl)-1,2,3,4-tetrahydroisoquinolin-4-yl)piperidin-1-yl)propoxy)benzoic acid], the 50% inhibitory concentration (IC50) came out at 485 µM.

In the case of `N#CC(c1ccccc1)(C1CCN(CC2CN(c3ccc(S(=O)(=O)c4ccncc4)cc3)C2)CC1)[C@H]1CCC[C@@H]1OC(=O)C1CC1` (mixture of isomers) [compound 197, rac-(1S,2R)-2-(cyano(phenyl)(1-((1-(4-(pyridin-4-ylsulfonyl)phenyl)azetidin-3-yl)methyl)piperidin-4-yl)methyl)cyclopentyl cyclopropanecarboxylate], the IC50 turned out to be 0.018 µM.

`CC(=O)O[C@H]1CCC[C@@H]1C(C#N)(c1cccc(C(F)(F)F)c1)C1CCN(CC2CN(c3ccc(C#N)cc3)C2)CC1` (mixture of isomers) [compound 417, rac-(1S,2R)-2-(cyano(1-((1-(4-cyanophenyl)azetidin-3-yl)methyl)piperidin-4-yl)(3-(trifluoromethyl)phenyl)methyl)cyclopentyl acetate]: the IC50 worked out at 1.61 µM.

For the molecule `CC(=O)N1CCC[C@@H]1C(C#N)(c1ccccc1)C1CCN(CCCOc2ccc(C#N)cc2)CC1` (stereo partly drawn) [compound 331, 4-(3-(4-(((R)-1-acetylpyrrolidin-2-yl)(cyano)(phenyl)methyl)piperidin-1-yl)propoxy)benzonitrile], the IC50 amounted to 23.3 µM.

For `CO[C@@H]1CCC[C@H]1C(C#N)(c1ccccc1)C1CCN(CC2CN(c3ccc(S(C)(=O)=O)cc3)C2)CC1` (mixture of isomers) [compound 180, rac-2-((1S,2R)-2-methoxycyclopentyl)-2-(1-((1-(4-(methylsulfonyl)phenyl)azetidin-3-yl)methyl)piperidin-4-yl)-2-phenylacetonitrile], the IC50 was determined as 9.7 µM.

Take `N#Cc1ccc(OCCCN2CCC(CC3(C4CCCC4)NCCc4ccccc43)CC2)cc1` (stereo not drawn) [compound 104, 4-(3-(4-((1-cyclopentyl-1,2,3,4-tetrahydroisoquinolin-1-yl)methyl)piperidin-1-yl)propoxy)benzonitrile]: the IC50 is 32.7 µM.

For the molecule `N#Cc1ccc(OCCCN2CCC(C(C#N)(c3ccccc3)C3CCCCC3)CC2)cc1` (stereo not drawn) [compound 294, 4-(3-(4-(cyano(cyclohexyl)(phenyl)methyl)piperidin-1-yl)propoxy)benzonitrile], the IC50 came to 11.1 µM.

On to `CC(=O)O[C@@H]1CCC[C@H]1C(C#N)(c1ccccc1)C1CCN(CC2CN(c3ccc(S(=O)(=O)C4CC4)cc3)C2)CC1` (mixture of isomers) [compound 188, rac-((1R,2S)-2-(cyano(1-((1-(4-(cyclopropylsulfonyl)phenyl)azetidin-3-yl)methyl)piperidin-4-yl)(phenyl)methyl)cyclopentyl acetate], for which the IC50 was 1.7 µM.

As to `N#CC(c1ccccc1)(C1CCN(CC2CN(c3ccc(S(=O)(=O)c4ccncc4)cc3)C2)CC1)[C@@H]1CCC[C@H]1CO` (mixture of isomers) [compound 257, rac-2-((1R,2R)-2-(hydroxymethyl)cyclopentyl)-2-phenyl-2-(1-((1-(4-(pyridin-4-ylsulfonyl)phenyl)azetidin-3-yl)methyl)piperidin-4-yl)acetonitrile], the IC50 is 4.6 µM.

In the case of `N#Cc1ccc(N2CC(CN3CCC(C4(C5CCCC5)NCCc5ccccc54)CC3)C2)nc1` (stereo not drawn) [compound 110, 6-(3-((4-(1-cyclopentyl-1,2,3,4-tetrahydroisoquinolin-1-yl)piperidin-1-yl)methyl)azetidin-1-yl)nicotinonitrile], the IC50 stood at 575 µM.

`CS(=O)(=O)c1ccc(N2CC(CN3CCC(C(C#N)(c4ccccc4)C4CCC(=O)C4)CC3)C2)cc1` (stereo not drawn) [compound 169, 2-(1-((1-(4-(methylsulfonyl)phenyl)azetidin-3-yl)methyl)piperidin-4-yl)-2-(3-oxocyclopentyl)-2-phenylacetonitrile]: the IC50 was determined as 49.9 µM.

`N#Cc1ccc(OCCCN2CCC(C3(C4CCCC4)NCCc4cc(F)ccc43)CC2)cc1` (stereo not drawn) [compound 30, 4-(3-(4-(1-cyclopentyl-6-fluoro-1,2,3,4-tetrahydroisoquinolin-1-yl)piperidin-1-yl)propoxy)benzonitrile]: the IC50 was found to be 0.439 µM.

For `CCS(=O)(=O)c1ccc(N2CC(CN3CCC(C4(C5CCCC5)CN(C)Cc5ccccc54)CC3)C2)cc1` (stereo not drawn) [compound 69, 4-cyclopentyl-4-(1-((1-(4-(ethylsulfonyl)phenyl)azetidin-3-yl)methyl)piperidin-4-yl)-2-methyl-1,2,3,4-tetrahydroisoquinoline], the half-inhibitory concentration (IC50) worked out at 0.03 µM.

For `CC1CN(CCCOc2ccc(C#N)cc2)CCC1C(C#N)(c1ccccc1)C1CCCC1` (stereo not drawn) [compound 120, 4-(3-(4-(cyano(cyclopentyl)(phenyl)methyl)-3-methylpiperidin-1-yl)propoxy)benzonitrile], the IC50 came to 5.7 µM.

With `N#CC(c1ccccc1)(C1CCN(CC2CN(c3ccc(S(=O)(=O)c4ccncc4)cc3)C2)CC1)[C@H]1CCC[C@@H]1OC(=O)C1CCC1` (mixture of isomers) [compound 209, rac-(1S,2R)-2-(cyano(phenyl)(1-((1-(4-(pyridin-ylsulfonyl)phenyl)azetidin-3-yl)methyl)piperidin-4-yl)methyl)cyclopentyl cyclobutanecarboxylate], the IC50 came out at 0.111 µM.

`CS(=O)(=O)c1ccc(N2CC(CN3CCC(C(C#N)(c4ccccc4)[C@H]4CCC[C@@H]4O)CC3)C2)cc1` (mixture of isomers) [compound 178, rac-2-((1R,2S)-2-hydroxycyclopentyl)-2-(1-((1-(4-(methylsulfonyl)phenyl)azitidin-3-yl)methyl)piperidin-4-yl)-2-phenylacetonitrile]: the IC50 amounted to 6.5 µM.

In the case of `N#Cc1ccc(N2CC(CN3CCC(C4(C5CCCC5)NCCc5ccccc54)CC3)C2)cc1` (stereo not drawn) [Cpd. No. 129, 4-(3-((4-(1-cyclopentyl-1,2,3,4-tetrahydroisoquinolin-1-yl)piperidin-1-yl)methyl)azetidin-1-yl)benzonitrile], the half-maximal inhibitory concentration (IC50) turned out to be 0.036 µM.

For the molecule `CNC(=O)O[C@@H]1CCC[C@H]1C(C#N)(c1ccccc1)C1CCN(C2CCN(c3ccc(S(=O)(=O)c4ccccc4)cc3)CC2)CC1` (mixture of isomers) [compound 235, rac-(1R,2S)-2-(cyano(phenyl)(1′-(4-(phenylsulfonyl)phenyl)-[1,4′-bipiperidin]-4-yl)methyl)cyclopentyl methylcarbamate], the IC50 was 6.2 µM.
